# Reference: patent publication US20240010726A1, “LFA-1 SIGNALLING MEDIATOR FOR USE IN CANCER THERAPY” (Universität Basel, priority 2020, published 2024)
# Experiments:
# LFA-1 = target: T1, LFA-1 (Homo sapiens, UniProt P05107+P20701); experiment: Flow cytometry of LFA-1 conformations on PHA T cell blasts; format: cell-based
# T1 construct: endogenous in cells; host or cells: primary human T cells from healthy donors: PHA-induced T cell blasts, sorted EM and naive CD8 T cells, and NY-ESO-1 TCR-transduced REP T cells
# T1 sequence (P20701 26-1170): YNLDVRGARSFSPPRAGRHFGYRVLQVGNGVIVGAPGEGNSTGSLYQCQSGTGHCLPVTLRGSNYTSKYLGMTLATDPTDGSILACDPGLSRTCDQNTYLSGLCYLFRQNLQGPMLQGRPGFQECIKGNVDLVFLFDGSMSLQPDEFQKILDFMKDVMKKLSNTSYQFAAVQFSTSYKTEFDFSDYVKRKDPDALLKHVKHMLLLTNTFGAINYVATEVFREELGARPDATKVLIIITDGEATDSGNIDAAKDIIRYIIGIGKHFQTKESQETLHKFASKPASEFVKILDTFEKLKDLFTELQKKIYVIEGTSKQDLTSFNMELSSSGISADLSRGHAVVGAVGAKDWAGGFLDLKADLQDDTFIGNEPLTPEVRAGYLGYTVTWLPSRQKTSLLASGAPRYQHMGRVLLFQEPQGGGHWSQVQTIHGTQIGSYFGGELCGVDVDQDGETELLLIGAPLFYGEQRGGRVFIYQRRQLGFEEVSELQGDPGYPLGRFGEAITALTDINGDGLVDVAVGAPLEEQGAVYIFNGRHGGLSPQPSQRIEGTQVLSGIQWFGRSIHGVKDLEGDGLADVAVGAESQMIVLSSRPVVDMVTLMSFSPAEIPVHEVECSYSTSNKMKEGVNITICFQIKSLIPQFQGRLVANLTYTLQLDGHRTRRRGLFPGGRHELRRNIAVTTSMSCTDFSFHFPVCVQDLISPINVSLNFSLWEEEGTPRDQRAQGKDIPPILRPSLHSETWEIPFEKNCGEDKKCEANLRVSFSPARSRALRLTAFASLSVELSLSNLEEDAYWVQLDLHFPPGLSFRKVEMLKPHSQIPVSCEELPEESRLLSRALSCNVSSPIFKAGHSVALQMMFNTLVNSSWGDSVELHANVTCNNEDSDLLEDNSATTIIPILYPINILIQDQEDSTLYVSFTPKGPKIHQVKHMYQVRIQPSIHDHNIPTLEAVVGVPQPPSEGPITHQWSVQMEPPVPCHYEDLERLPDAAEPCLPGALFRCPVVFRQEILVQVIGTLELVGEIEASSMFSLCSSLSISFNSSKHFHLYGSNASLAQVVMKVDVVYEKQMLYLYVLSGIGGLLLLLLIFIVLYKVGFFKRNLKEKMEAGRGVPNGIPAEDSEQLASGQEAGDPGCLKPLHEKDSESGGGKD
# T1 sequence (P05107 23-769): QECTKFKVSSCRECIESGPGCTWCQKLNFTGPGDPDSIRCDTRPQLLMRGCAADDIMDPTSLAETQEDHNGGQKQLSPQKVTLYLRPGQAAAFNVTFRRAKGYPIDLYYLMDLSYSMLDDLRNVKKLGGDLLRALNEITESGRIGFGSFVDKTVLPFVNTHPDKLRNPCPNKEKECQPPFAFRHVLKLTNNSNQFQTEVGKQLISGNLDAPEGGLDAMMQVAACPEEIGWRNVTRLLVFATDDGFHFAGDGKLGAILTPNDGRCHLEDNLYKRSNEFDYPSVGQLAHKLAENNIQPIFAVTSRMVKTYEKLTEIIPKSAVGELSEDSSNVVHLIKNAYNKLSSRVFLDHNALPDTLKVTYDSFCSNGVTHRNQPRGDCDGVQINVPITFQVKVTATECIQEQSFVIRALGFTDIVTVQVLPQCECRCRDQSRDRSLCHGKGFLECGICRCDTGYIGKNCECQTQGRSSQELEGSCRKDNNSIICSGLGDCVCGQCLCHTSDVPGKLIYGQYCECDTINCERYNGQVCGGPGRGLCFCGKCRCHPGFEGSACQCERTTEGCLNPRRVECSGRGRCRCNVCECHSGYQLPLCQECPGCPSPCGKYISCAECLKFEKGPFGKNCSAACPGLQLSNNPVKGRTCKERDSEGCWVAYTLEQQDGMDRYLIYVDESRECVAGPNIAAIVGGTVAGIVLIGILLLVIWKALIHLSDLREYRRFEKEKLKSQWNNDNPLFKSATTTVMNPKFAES
# Protocol: Glycolytic switch of human EM CD8 T cells (a) and naïve CD8 T cells (b) subsets upon injection of anti-CD3 Ab only, or anti-CD3 and anti-CD28 Ab, was assessed by metabolic flux analysis in medium containing either 1.2 mM Mg^2+, 0 mM Mg^2+, or medium which was reconstituted from 0 mM to 1.2 mM Mg^2+ immediately prior to activation (0→1.2 mM Mg^2+). (a) Results for human effector memory (EM) and (b) for human naïve CD8 T cells. Glycolytic switch was quantified by subtracting […] measurements. (c) Flow cytometric analysis of surface activation markers on human EM CD8 T cells 24 hours after activation by plate-bound anti-CD3 Ab and soluble anti-CD28 Ab, in 1.2 mM and 0 mM Mg^2+ media, respectively. (d) Abundance of inflammatory cytokines in corresponding EM CD8 T cell culture supernatants, determined by CBA. (e) CD11a (LFA-1) surface expression on human naïve and EM CD8 T cells as well PHA T cell blasts. Flow cytometry-based assessment of total LFA-1 expression assessed by mAb TS2/4 (f), closed conformation of αL by mAb HI111 (g), extended conformation of LFA-1 by mAb Kim127 (h), open head-piece conformation of LFA-1 by mAb m24 (i), phosphorylation of focal adhesion kinase (FAK) […] as well TNF expression (k)±TCR-induced activation in different extracellular Mg^2+ concentrations. (l) Flow cytometry-based assessment of LFA-1 with open-head piece conformation on human EM and naïve CD8 T cells using the open head-piece reporter mAb m24. (m) Assessment of glycolytic switch of EM CD8 T cells. (n) Assessment of glycolytic switch of naïve CD8 T cells. […] Naïve CD8 T cells were activated with in house generated anti-CD3/anti-CD28 coated microbeads. Polybead microspheres ([…], Polyscience […]) were incubated with 1 μg anti-CD3 Ab and 10 μg anti-CD28 Ab. […] Primary human T cells were activated for 24 h and PHA-blasts for 4 h. For evaluation of activation induced LFA-1 head-piece opening, T cells were activated for […] and anti-human CD11a/CD18 (clone m24) was directly added in medium and incubated on ice for 20 min. Cells were then washed twice in FACS Buffer and fixed in 2% PFA, incubated at room temperature for 20 min and washed with FACS Buffer before acquisition. […] For stainings with HI111, the cells were activated for 45 min, fixed with 2% PFA and subsequently stained with HI111 and washed with FACS Buffer before acquisition.
# REP T cells = experiment: FAK phosphorylation and CD107a degranulation of REP T cells co-incubated with T2 target cells; format: cell-based, human; details: pulsed T2 target cells; presence vs absence of extracellular Mg^2+
# Protocol: FIG. 3: Magnesium regulates LFA-1 mediated T cell activation and cytotoxicity as well BiTE- and CAR T-cell functionality. (a) Glycolytic switch of murine WT and LFA-1^−/− CTLs upon injection of anti-CD3/28 Ab in medium containing 1.2 mM Mg^2+ and 0 mM Mg^2+, presented as quantification of summarized data with n=4 mice. (b) Calcium flux in WT and LFA-1^−/− Jurkat T cells stimulated with anti-CD3 Ab in 1.2 mM and 0 mM Mg^2+ medium, respectively. Cells were loaded with Fluo4, and signal intensity as recorded by plate reader, was normalized to unstimulated baseline values. […] Quantified results of n=3 mice with 3 technical replicates each. (d) Caspase-3 activity in EL4 target cells after co-culture with murine WT and LFA-1^−/− CTLs under the conditions as in (c) for 4 hours, in presence of 10 μg/ml PHA. The effector to target cell ratio was 3:1. Results are quantified of n=3 mice with 3 technical replicates each. (e) Representative CD11a (LFA-1) surface expression on human naïve and EM CD8 T cells, PHA T cell blasts and REP T cells, assessed by flow cytometry. Flow cytometry-based assessment of inactivate LFA-1 with bent conformation (f), extended conformation with β2 leg extension (g), LFA-1 with open head-piece (h), phosphorylation of FAK, expression of degranulation marker CD107a (j) on REP T cells after co-incubation with T2 target cells (pulsed with 10^−8 M 9c peptide) in same condition as in (c). The effector to target cell ratio was 1:1. Data is presented as quantified results of n=5 healthy donors (f, g, h), n=3 healthy donors with 2 technical replicates each or n=1 healthy donor with 4 technical replicates (j). […] Data is presented as quantified results of n=1 healthy donor with 4 technical replicates. […] Cytotoxicity is reported as total area under the curve of the fluorescence driven by incorporation of cytotoxic green reagent in dead target cells (green area per μm^2). […] (p) Abundance of IFNγ in cell culture supernatants corresponding to the conditions depicted in (o) at 24 hours was determined by ELISA (n=8, 3 independent experiments). […]
# [1] = PHA T cell blasts ±TCR-induced activation, different extracellular Mg^2+ concentrations
smiles,measurement,setting,value
"[Mg+2] [Mg^2+, Magnesium]",Extended conformation of LFA-1 (mAb KIM127),"LFA-1; PHA T cell blasts upon T-cell activation, increasing extracellular Mg^2+ concentrations",dose-dependent KIM127 signal increase
same,Inactive/bent LFA-1 conformation (mAb HI111),"LFA-1; PHA T cell blasts upon TCR stimulation, decreasing extracellular Mg^2+ concentrations",higher levels of inactive LFA-1
same,Open head-piece conformation of LFA-1 (mAb m24),LFA-1; [1],strongly depending on extracellular Mg^2+ concentration
same,Total LFA-1 expression (mAb TS2/4 epitope),LFA-1; [1],independent on the extracellular Mg^2+ concentration
same,LFA-1 activation in unstimulated T cells,"LFA-1; ±Mg^2+, data not shown",did not differ
same,Degranulation (CD107a) of REP T cells,REP T cells,significantly increased
same,FAK phosphorylation in REP T cells,REP T cells,significantly increased
